Data from patent US7098307B2, “Neo-tryptophan” (Mayo Foundation for Medical Education and Research, priority 1998, dated 2006).
Where two headings read alike, the source gives them in different places. Blank lines part the entries; values can stand above or below the compound they belong to. Numbered stars: 1 amine (or outer) side, 2 acyl side, 3 side chain; on linkers, the order of the positions; unused ones are H or OH. Square brackets hold non-standard residues; d marks the D form. Ends that are not written are not given here. Peptide text beside a SMILES is read from it. Ala(indol-4-yl) = N[C@@H](Cc1cccc2[nH]ccc12)C(=O)O; X1 = O=C([C@@H](Cc1cccc2[nH]ccc12)N[*:1])[*:2]; NMeR = CN[C@@H](CCCNC(=N)N)C(=O)O; Tle = CC(C)(C)[C@H](N)C(=O)O; dOrn = NCCC[C@@H](N)C(=O)O; Dab = NCC[C@H](N)C(=O)O

What was measured:
human NTR1 = biological target: T1, human NTR1 (Homo sapiens, UniProt P30989); experiment: Competition binding with [3H]NT, membranes of CHO-K1 cells transfected with human NTR1
T1 construct: expressed in transfected cells; host or cells: CHO-K1
Description: (§1) CHO-K1 cells were stably transfected with nucleic acid encoding either the human NTR1 or the rat NTR1, and cultured in 150 mm petri plates with 35 mL of Dulbecco-modified Eagle's medium containing 100 μM minimal essential medium nonessential amino acids (GIBCO) supplemented with 5% (v/v) FetalClone II bovine serum product (Hyclone Labs, Logan, Utah). CHO cells (subculture 9–19) were harvested at confluency. Briefly, the medium from each plate was removed by aspiration, and the cells washed with 6 mL of 50 mM Tris-HCl (pH 7.4) and resuspended in 5–10 mL of Tris-HCl by scraping the cells with a rubber spatula. The resuspended cells were placed into a centrifuge tube and collected by centrifugation at 300× g for five minutes at 4° C. in a GPR centrifuge (Beckman Instruments, Fullerton, Calif.). The cellular pellet (in 50 mM Tris-HCl, 1 mM EDTA, pH 7.4) was stored at […] until radioligand binding was performed.
(§2) The supernatant was decanted and discarded, and the cellular pellet was resuspended in 2 mL of Tris-HCl, 1 mM EDTA (pH 7.4) followed by homogenization with a Brinkmann Polytron at setting 6 for ten seconds. Centrifugation was repeated as above and the supernatant was decanted and discarded. The resulting final cellular pellet was resuspended in 50 mM Tris-HCl, lmM EDTA, 0.1% bovine serum albumin, and 0.2 mM bacitracin.
(§3) Incubation was at 20° C. for 30 minutes. Each reaction was terminated by addition of cold 0.9% NaCl (5×1.5 mL) followed by rapid filtration through a GF/B filter strip that had been pretreated with 0.2% polyethylenimine.

[1] = Catalepsy bar test in rats; type: in vivo, rat
Description: The following experiments were performed to assess the ability of NT69L to cause and influence catalepsy. Male Sprague-Dawley rats (150–250 g) or CD-1 mice (24–26 g) were housed in a temperature-controlled room in groups of five with free access to food and water. The animals were kept on a 12 hour light/dark cycle, and all tests were performed during the light cycle. […] Thirty minutes after injection, the animals were tested for catalepsy. For rats, the test involved simply placing the animal's fore paws on a suspended metal bar 10 mm in diameter, 11 cm above the counter. The time elapsed until the animal's fore paws touch the counter was recorded. […] The cut-off time was 20 seconds, and each animal was tested three times for each time point.

5HT2A receptor = 5HT2A receptor (Homo sapiens, UniProt P28223); experiment: Competitive binding with [3H]ketanserin, human brain tissue; conditions: for competition with labeled ketanserin for binding at the 5HT2A receptor: human brain tissue
[2] = Degradation in human plasma (HPLC peak area); type: in vitro ADME; conditions: for half-life at 0.5 mg/mL: human
From the text: (§4) For the degradation studies, data were plotted in linear form as a semi-log plot with SigmaPlot for Windows Version 4.00. Linear regression on these plots provided the parameters used to calculate the half-time (t1/2) for degradation of each polypeptide. The correlation coefficient (R) for the linear regression was taken as a measure of the goodness-of-fit.

[3] = Body temperature (hypothermia) in rats; conditions: for peak body temperature reduction: 18 nmol injected into the PAG, at 30 minutes; for induction of hypothermia: intraperitoneal administration (NT64L 1 mg/kg); for Peak BT change / time of Peak BT change: rats
[4] = Hot plate test (antinociception, % MPE) in rats; conditions: for peak % MPE value: 18 nmol injected into the PAG, at 30 minutes; for induction of antinociception (hot plate): intraperitoneal administration (NT64L 1 mg/kg); for Peak % MPE / time of Peak % MPE: rats
rat NTR1 = biological target: T2, rat NTR1 (Rattus norvegicus, UniProt P20789); experiment: Competition binding with [3H]NT, membranes of CHO-K1 cells transfected with rat NTR1
T2 construct: expressed in transfected cells; host or cells: CHO-K1
Description: as §1, §2, §3

[5] = Degradation in rat plasma (HPLC peak area); type: in vitro ADME
From the text: as §4

[6] = Degradation in rat intestinal preparation; type: in vitro ADME; conditions: pH 7.4, 37° C., read-out: half-time, Rat Intestinal Preparation (converted)
Description: For intestinal preparations, rats were sacrificed by decapitation, and the small intestines removed. The tissue was washed with ice-cold PBS (10 mM, pH 7.4). About […] of intestinal tissue was added to about 10 mL of PBS and homogenized using a Brinkman polytron homogenizer (setting 6). After homogenization, 10 mL of PBS was added to 10 mL of the intestinal homogenate. […] The supernatant was removed and stored at −20° C. until testing. Immediately before incubation with the polypeptide, the intestinal preparation was filtered through a 0.2 μm filter. Testing procedures were similar to those for the plasma tests.
as §4

[7] = CHO cells, read-out: Kd hNTR (Table VII)
[8] = 25% plasma, 37° C., 0.5 mg/mL polypeptide, read-out: half-time, Plasma Human (converted)
[9] = 0.5 mg/kg intraperitoneal (footnote)

Compound: O=C(CCCN1CCC(O)(c2ccc(Cl)cc2)CC1)c1ccc(F)cc1 [Haloperidol, reference compound]
catalepsy ([1]; 1 mg/kg ip): profound catalepsy
ED50 at 30 min ([1]; male, Sprague-Dawley, rat, in vivo, ip, at 30 minutes, read-out: ED50 haloperidol-induced catalepsy): 0.13 mg/kg
ED50 at 60 min ([1]; male, Sprague-Dawley, rat, in vivo, ip, at 60 minutes, read-out: ED50 haloperidol-induced catalepsy): 0.26 mg/kg
ED50 at 180 min ([1]; male, Sprague-Dawley, rat, in vivo, ip, at 180 minutes, read-out: ED50 haloperidol-induced catalepsy): 0.31 mg/kg

Compound: CC[C@H](C)[C@H](NC(=O)[C@H](Cc1cccc2[nH]ccc12)NC(=O)[C@@H]1CCCN1C(=O)[C@H](CCCNC(=N)N)NC(=O)[C@@H](N)CCCNC(=N)N)C(=O)N[C@@H](CC(C)C)C(=O)O [NT64L]
peak body temperature reduction [3]: 2.1 °C
induction of hypothermia [3]: did not induce
Kd (5HT2A receptor): 6.6 µM
competition with labeled ketanserin for binding at the 5HT2A receptor (5HT2A receptor): found to compete
peak % MPE value [4]: 76%
induction of antinociception (hot plate) [4]: did not induce
half-life at 0.5 mg/mL [2, 8]: 84 min

Compound: CC(C)C[C@H](NC(=O)[C@@H](NC(=O)[C@@H](Cc1cccc2[nH]ccc12)NC(=O)[C@@H]1CCCN1C(=O)[C@H](CCCNC(=N)N)NC(=O)[C@H](N)CCCCN)C(C)(C)C)C(=O)O [NT66D] (H-[dK]RP[X1][Tle]L-OH; N-terminus and C-terminus assumed)
Peak BT change [3, 9]: −1.0 @ ° C.
time of Peak BT change [3, 9]: 30 min
induction of hypothermia [3]: did induce
Kd (human NTR1): 210 ± 20 nM
Peak % MPE [4, 9]: 58% @
time of Peak % MPE [4, 9]: 30 min
induction of antinociception (hot plate) [4]: did induce
Kd (rat NTR1): 77 ± 9 nM

Compound: CN[C@@H](CCCNC(=N)N)C(=O)N[C@@H](CCN)C(=O)N1CCC[C@H]1C(=O)N[C@@H](Cc1cccc2[nH]ccc12)C(=O)N[C@H](C(=O)N[C@@H](CC(C)C)C(=O)O)C(C)(C)C [NT71] (H-[NMeR][Dab]P[Ala(indol-4-yl)][Tle]L-OH; N-terminus and C-terminus assumed)
Peak BT change ([3]; 1 mg/kg intraperitoneal): −2.0 @ ° C.
time of Peak BT change ([3]; 1 mg/kg intraperitoneal): 40 min
Peak BT change ([3]; 5 mg/kg intraperitoneal): −2.4 @ ° C.
time of Peak BT change ([3]; 5 mg/kg intraperitoneal): 90 min
induction of hypothermia [3]: did induce
half-life at 0.5 mg/mL ([5]; 25% plasma, 37° C., 0.5 mg/mL polypeptide, read-out: half-time, Plasma Rat (converted)): 10.8 days
half-life [6]: 306 min
Peak % MPE ([4]; 1 mg/kg intraperitoneal): 70% @
time of Peak % MPE ([4]; 1 mg/kg intraperitoneal): 60 min
Peak % MPE ([4]; 5 mg/kg intraperitoneal): 79% @
time of Peak % MPE ([4]; 5 mg/kg intraperitoneal): 180 min
induction of antinociception (hot plate) [4]: did induce

Compound: CC(C)C[C@H](NC(=O)[C@@H](NC(=O)[C@H](Cc1cccc2[nH]ccc12)NC(=O)[C@@H]1CCCN1C(=O)[C@H](N)CCCCN)C(C)(C)C)C(=O)O [NT72] (H-[dK]P[Ala(indol-4-yl)][Tle]L-OH; N-terminus and C-terminus assumed)
Peak BT change ([3]; 5 mg/kg intraperitoneal): −2.8 @ ° C.
time of Peak BT change ([3]; 5 mg/kg intraperitoneal): 180 min
induction of hypothermia [3]: did induce
half-life [6]: 3240 min
Kd (human NTR1): 640 nM
Peak % MPE ([4]; 5 mg/kg intraperitoneal): 100% @
time of Peak % MPE ([4]; 5 mg/kg intraperitoneal): 120 min
induction of antinociception (hot plate) [4]: did induce
Kd (rat NTR1): 270 ± 30 nM
half-life at 0.5 mg/mL [2, 8]: 180000 min

Compound: CC[C@H](C)[C@H](NC(=O)[C@H](Cc1cccc2[nH]ccc12)NC(=O)[C@@H]1CCCN1C(=O)[C@H](N)CCCCN)C(=O)N[C@@H](CC(C)C)C(=O)O [NT73] (H-[dK]P[Ala(indol-4-yl)]IL-OH; N-terminus and C-terminus assumed)
Peak BT change ([3]; 5 mg/kg intraperitoneal): −0.9 @ ° C.
time of Peak BT change ([3]; 5 mg/kg intraperitoneal): 90 min
induction of hypothermia [3]: did induce
half-life [6]: 49.8 min
Kd (human NTR1): 45 ± 3 nM
Peak % MPE ([4]; 5 mg/kg intraperitoneal): 40% @
time of Peak % MPE ([4]; 5 mg/kg intraperitoneal): 120 min
induction of antinociception (hot plate) [4]: did induce
Kd (rat NTR1): 32 ± 6 nM
half-life at 0.5 mg/mL [2, 8]: 18000 min

Compound: NT24″27″: L-Arg-D-Orn-L-Pro-L-Tyr-L-Ile-L-Leu (R[dOrn]PYIL) [reference compound]
peak body temperature reduction [3]: 1.1 °C
induction of hypothermia [3]: did not induce
peak % MPE value [4]: 20%
induction of antinociception (hot plate) [4]: did not induce

Now from value to compound, other results behind:

Kd (human NTR1; [7]): > 100000 nM
Compound: CN1CCN(C2=Nc3cc(Cl)ccc3Nc3ccccc32)CC1 [Clozapine, reference compound]
catalepsy ([1]; 20 mg/kg ip): did not cause catalepsy

Kd (5HT2A receptor): > 100 µM
competition with labeled ketanserin for binding at the 5HT2A receptor (5HT2A receptor): did not compete
binding to human NT receptors from CHO cells (human NTR1): does not bind
Kd (human NTR1; [7]): > 100000 nM
Compound: N[C@@H](Cc1cccc2[nH]ccc12)C(=O)O [L-neo-Trp, (2S)-2-amino-3-(1H-4-indolyl)propanoic acid]

competition with labeled ketanserin for binding at the 5HT2A receptor (5HT2A receptor): found to compete
half-time, Plasma Human [2]: about 0.85 hours
half-life at 0.5 mg/mL ([2]; plasma): 51 min
Compound: CC[C@H](C)[C@H](NC(=O)[C@H](Cc1ccc(O)cc1)NC(=O)[C@@H]1CCCN1C(=O)[C@H](CCCNC(=N)N)NC(=O)[C@H](N)CCCCN)C(=O)N[C@@H](CC(C)C)C(=O)O [NT2, reference compound] (H-[dK]RPYIL-OH; N-terminus and C-terminus assumed)

reduction in binding affinity compared to NT64L (human NTR1; NT receptor binding): 3 fold
half-life at 0.5 mg/mL ([2]; plasma): 66 min
Compound: CC(C)C[C@H](NC(=O)[C@@H](NC(=O)[C@H](Cc1cccc2[nH]ccc12)NC(=O)[C@@H]1CCCN1C(=O)[C@H](CCCNC(=N)N)NC(=O)[C@@H](N)CCCNC(=N)N)C(C)(C)C)C(=O)O [NT65L] (H-RRP[Ala(indol-4-yl)][Tle]L-OH; N-terminus and C-terminus assumed)

half-life at 0.5 mg/mL ([5]; plasma): 4.58 days
Compound: CC(C)C[C@H](NC(=O)[C@@H](NC(=O)[C@H](Cc1cccc2[nH]ccc12)NC(=O)[C@@H]1CCCN1C(=O)[C@@H](N)CCN)C(C)(C)C)C(=O)O [NT74] (H-[Dab]P[Ala(indol-4-yl)][Tle]L-OH; N-terminus and C-terminus assumed)

half-life at 0.5 mg/mL ([5]; plasma): 0.0667 days
half-life [6]: 16.2 min
Compound: CC[C@H](C)[C@H](NC(=O)[C@H](Cc1cccc2[nH]ccc12)NC(=O)[C@@H]1CCCN1C(=O)[C@@H](N)CCN)C(=O)N[C@@H](CC(C)C)C(=O)O [NT75] (H-[Dab]P[Ala(indol-4-yl)]IL-OH; N-terminus and C-terminus assumed)

Kd (human NTR1; [7]): > 100000 nM
Kd (rat NTR1; CHO cells, read-out: Kd rNTR (Table VII)): > 100000 nM
Compound: NCCc1c[nH]c2ccc(O)cc12 [Serotonin, reference compound]
